Source: patent US11319348B2, “Synthetic beta-amyloid peptides capable of forming stable antigenic oligomers” (The Regents of the University of California, priority 2016, dated 2022)
Non-standard residues stand in square brackets, D forms with d. No end group written: not given here. NMeF = CN[C@@H](Cc1ccccc1)C(=O)O; Orn = NCCC[C@H](N)C(=O)O

Experiments:
[1] = size exclusion chromatography in sodium acetate buffer; format: physicochemical; conditions: for oligomer state consistent with SEC elution volume: acetate buffer; for oligomer size by SEC: sodium acetate buffer pH 4.5
Description: The elution profiles in acetate buffer of trimers were compared to peptides 1 and 2. Size standards vitamin B12 (1.3 kDa), aprotinin (6.5 kDa), and […] (12.4 kDa) eluted at 18.6 mL, 15.4 mL, and 13.4 mL, respectively (FIG. 31A). Trimer 3 and […] eluted at 14.3 mL and at 14.5 mL, respectively. These elution volumes are consistent with the molecular weight of a hexamer (10.6 kDa). The peaks for trimers 3 and 4 tail slightly and may reflect a trimer-hexamer equilibrium in which the hexamer predominates.
Peptides 1 and 2 elute at 16.8 mL and 17.3 mL, respectively.
The oligomerization of peptides 1 and 2 and trimers 3 and 4 was studied by size-exclusion chromatography (SEC) at 4 CC in 50 mM sodium acetate/50 mM acetic acid buffer (sodium acetate buffer) at pH 4.5 as follows: Each peptide or trimer was dissolved in deionized water to a concentration of 10 mg/mL. The peptide or trimer solutions were then diluted to 1 mg/mL by adding 80 μL of the 10 mg/mL solutions to 720 μL of sodium acetate buffer. The peptide or trimer solutions were loaded onto a GE Superdex 75 10/300 GL column at 0.5 mL/min over 1 min. After loading, the samples were run with sodium acetate buffer at 1 mL/min, Chromatograms were recorded at 214 nm and normalized to the highest absorbance value. Standards (cytochrome C, aprotinin, and vitamin B12) were run in the same fashion.

SH-SY5Y cells = assay: LDH release assay; format: cell-based, human; conditions: for lowest concentration with increased LDH release / toxicity (concentrations as low as) / LDH release / LDH release / toxicity toward SH-SY5Y cells, in words: SH-SY5Y cells; for LDH release: 72 h
Description: Aβ is known to be toxic toward neurons and neuronally derived cells (I. Benilova, et al., 2012, cited supra). To corroborate the toxicity of Aβ, we prepared oligomers of Aβ42 and studied their toxicity toward a human neuroblastoma cell line, SH-SY5Y. Aβ oligomers were prepared according to the procedure developed by Teplow and coworkers using recombinantly expressed Aβ42 pretreated with NH4OH (purchased from rPeptide) (D. B. Teplow, Methods Enzymol. 2006 413, 20-33; and Y. Fezoui, et al., Amyloid. 2000 7, 166-178; the disclosures of which are incorporated herein by reference). Under the conditions of the oligomer preparation, Aβ42 forms predominantly monomer, trimer, and tetramer as assessed by SDS-PAGE (FIG. 28A). It was also observed that bands migrated with molecular weights consistent with a pentamer and hexamer. SH-SY5Y cells were treated with varying concentrations of Aβ42, and toxicity was evaluated using a lactate dehydrogenase (LDH) release assay. Aβ42 increased LDH release in a dose-dependent manner at concentrations as low as 2.5 μM, corroborating the toxicity of Aβ42 (FIG. 28B).
It was hypothesized that trimers 3 and 4 may elicit toxicity similarly to Aβ42. The toxicities of trimers 3 and 4 towards SH-SY5Y cells were evaluated using an LDH assay, using deionized water (vehicle) and peptides 1 and 2 as controls. Trimer 4 increased LDH release in a dose-dependent manner at concentrations as low as 1.5 μM, indicating toxicity toward SH-SY5Y cells (FIG. 29A). LDH release was observed as early as 48 h after addition to the cells and reached a maximum after 72 h.
Many oligomers formed by full-length Aβ are toxic toward cells (I. Benilove, E. Karan, and B. De Strooper, Nat. Neurosci. 2012 15, 349-357; and M. E. Larson and S. E. Lesne J. Neurochem. 2012 120, 125-139; the disclosures of which are incorporated herein by reference). To test whether the oligomers formed by peptide 8 are also toxic, the toxicity of peptide 8 toward neuronally derived SH-SY5Y cells were evaluated using a lactate dehydrogenase (LDH) release assay. Peptide 8 and 10 were compared to investigate how the hexamer-forming Aβ16-36-derived peptide compares to a non-oligomerizing homologue. The toxicity of peptides 2 and 11 were also evaluated to better understand the relationship between oligomerization and toxicity.
The toxicities of peptides 1 and […], and trimers 3 and 4 toward SH-SY5Y cells were assessed by LDH release and caspase-3 activation assays. Cells were incubated in the presence or absence of equivalent concentrations of peptides 1 or 3, or trimers 3 and 4 for 72 h in 96-well plates. The LDH release assay was performed using the Pierce LDH Cytotoxicity Assay Kit from Thermo Scientific. The caspase-3 assay was performed using the Roche APO-One Homogeneous Caspase-3/7 Assay. Experiments were performed in replicates of five and an additional 10 wells were used for controls. Cells were cultured in the inner 60 wells (rows B-G, columns 2-11) of the 96-well plate. DMEM:F12 media (100 μL) was added to the outer wells (rows A and H, columns 1 and 12), in order to ensure the greatest reproducibility of data generated in the inner wells.
A 10 mg/mL stock solution of peptides 1 or […], or trimers 3 and 4 was prepared gravimetrically by dissolving 1 mg of each compound in 100 μL of deionized water that was either filtered through a 0.2 μm syringe filter or autoclaved. The stock solution was used to create 180 μM working solutions of peptides 1 or 3, or 60 μM working solutions of trimers 3 and 4 (these solutions contain equivalent concentrations of peptide). The 180 μM working solutions of peptides 1 and 2 were serially diluted with deionized water to create 90 μM working solutions of peptides 1 and 2. The 60 μM working solutions of trimers 3 and 4 were serially diluted with deionized water to create 30 μM, 15 μM, and 7.5 μM working solutions of trimers 3 and 4.
SH-SY5Y cells were plated in a 96-well plate at 30,000 cells per well. […]

[2] = after addition to SH-SY5Y cells

| Substance | oligomer state consistent with SEC elution volume [1] | oligomer size by SEC [1] | lowest concentration with increased LDH release / toxicity (concentrations as low as) (SH-SY5Y cells) | LDH release (SH-SY5Y cells) | time at which LDH release reached a maximum (SH-SY5Y cells; [2]) | time at which LDH release was first observed (as early as) (SH-SY5Y cells; [2]) | LDH release / toxicity toward SH-SY5Y cells, in words (SH-SY5Y cells) |
| --- | --- | --- | --- | --- | --- | --- | --- |
| trimer 4: symmetric tris-disulfide crosslinked trimer generated from peptide 4 (chain 1 [Orn]CVF[NMeF]CED; chain 2 [Orn]AIIGL[Orn]V; also: symmetric tris-disulfide crosslinked trimer, macrocyclic by macrolactamization, linkage of strands not given here) | hexamer | 6 | 1.5 µM | yes | 72 h | 48 h |  |
| peptide 1: macrocyclic β-sheet peptide: Aβ17-23 and Aβ30-36 strands linked by two δOrn turns, Orn35, N-methyl on G33 (Seq. ID 18-19) | dimers | 1-2 |  | no |  |  | little or no LDH release |
| trimer 3: symmetric tris-disulfide crosslinked trimer generated from peptide 3 (chain 1 [Orn]CVFFCED; chain 2 [Orn]AIIGL[Orn]V; not fully specified (some residues); also: symmetric tris-disulfide crosslinked trimer, macrocyclic by macrolactamization, linkage of strands not given here) | hexamer | 6 |  | some |  |  | far less LDH release than trimer 4 |
| peptide 2: macrocyclic β-sheet peptide: Aβ17-23 and Aβ30-36 strands linked by two δOrn turns, Orn35, N-methyl on F20 (Seq. ID 20-21) | dimers | 1-2 | 100 µM | no |  |  | little or no LDH release |
